Assay results reported in ChEMBL document CHEMBL1800064, “Biaryl ethers as potent allosteric inhibitors of reverse transcriptase and its key mutant viruses: aryl substituted pyrazole as a surrogate for the pyrazolopyridine motif” (Bioorg Med Chem Lett, 2010).

What was measured:
[1] = system: Human immunodeficiency virus 1; experiment: Ratio IC50 for HIV1 isolate NL4-3 harboring reverse transcriptase G190A mutant to IC50 for HIV1 isolate NL4-3 harboring wild type reverse transcriptase by phenoscreen assay in presence of 40% normal human serum; format: functional
[2] = system: Human immunodeficiency virus 1; experiment: Ratio IC50 for HIV1 isolate NL4-3 harboring reverse transcriptase K103N/P225H double mutant to IC50 for HIV1 isolate NL4-3 harboring wild type reverse transcriptase by phenoscreen assay in presence of 40% normal human serum; format: functional
[3] = system: Human immunodeficiency virus 1; experiment: Antiviral activity against HIV1 isolate NL4-3 harboring wild type reverse transcriptase assessed as inhibition of viral replication by phenoscreen assay in presence of 40% normal human serum; format: functional, organism-based; conditions: Human immunodeficiency virus 1, isolate NL4-3
[4] = system: Human immunodeficiency virus 1; experiment: Ratio IC50 for HIV1 isolate NL4-3 harboring reverse transcriptase K103N/G190A double mutant to IC50 for wild type HIV1 isolate NL4-3 harboring reverse transcriptase by phenoscreen assay in presence of 40% normal human serum; format: functional
[5] = system: Human immunodeficiency virus 1; experiment: Ratio IC50 for HIV1 isolate NL4-3 harboring reverse transcriptase K103N/Y181C double mutant to IC50 for HIV1 isolate NL4-3 harboring wild type reverse transcriptase by phenoscreen assay in presence of 40% normal human serum; format: functional
[6] = system: Human immunodeficiency virus 1; experiment: Antiviral activity against HIV1 R8 harboring reverse transcriptase Y181C mutant infected in human MT4 cells assessed as inhibition of viral spread in presence of 10% fetal bovine serum; format: functional; conditions: Human immunodeficiency virus 1, R8, MT4; read-out: CIC95
[7] = system: Human immunodeficiency virus 1; experiment: Antiviral activity against HIV1 isolate NL4-3 harboring reverse transcriptase L100I mutant assessed as inhibition of viral replication by phenoscreen assay in presence of 40% normal human serum; format: functional, organism-based; conditions: Human immunodeficiency virus 1, isolate NL4-3
[8] = system: Human immunodeficiency virus 1; experiment: Antiviral activity against HIV1 isolate NL4-3 harboring reverse transcriptase K103N/V179E double mutant assessed as inhibition of viral replication by phenoscreen assay in presence of 40% normal human serum; format: functional, organism-based; conditions: Human immunodeficiency virus 1, isolate NL4-3
[9] = system: Human immunodeficiency virus 1; experiment: Antiviral activity against HIV1 isolate NL4-3 harboring reverse transcriptase K103N/Y181C/G190A mutant assessed as inhibition of viral replication by phenoscreen assay in presence of 40% normal human serum; format: functional, organism-based; conditions: Human immunodeficiency virus 1, isolate NL4-3
[10] = system: Human immunodeficiency virus 1; experiment: Antiviral activity against HIV1 isolate NL4-3 harboring reverse transcriptase K101E/Y181C/G190A mutant assessed as inhibition of viral replication by phenoscreen assay in presence of 40% normal human serum; format: functional, organism-based; conditions: Human immunodeficiency virus 1, isolate NL4-3
[11] = system: Human immunodeficiency virus 1; experiment: Antiviral activity against HIV1 isolate NL4-3 harboring reverse transcriptase K101E/G190A double mutant assessed as inhibition of viral replication by phenoscreen assay in presence of 40% normal human serum; format: functional, organism-based; conditions: Human immunodeficiency virus 1, isolate NL4-3
[12] = biological target: Human immunodeficiency virus type 1 reverse transcriptase (Human immunodeficiency virus 1, UniProt Q72547); experiment: Inhibition of wild type HIV1 reverse transcriptase by SPA assay
[13] = system: Human immunodeficiency virus 1; experiment: Ratio IC50 for HIV1 isolate NL4-3 harboring reverse transcriptase Y188L mutant to IC50 for HIV1 isolate NL4-3 harboring wild type reverse transcriptase by phenoscreen assay in presence of 40% normal human serum; format: functional
[14] = system: Human immunodeficiency virus 1; experiment: Ratio IC50 for HIV1 isolate NL4-3 harboring reverse transcriptase L100I mutant to IC50 for HIV1 isolate NL4-3 harboring wild type reverse transcriptase by phenoscreen assay in presence of 40% normal human serum; format: functional
[15] = system: Human immunodeficiency virus 1; experiment: Ratio IC50 for HIV1 isolate NL4-3 harboring reverse transcriptase Y181C mutant to IC50 for HIV1 isolate NL4-3 harboring wild type reverse transcriptase by phenoscreen assay in presence of 40% normal human serum; format: functional
[16] = system: Human immunodeficiency virus 1; experiment: Antiviral activity against HIV1 isolate NL4-3 harboring reverse transcriptase K103N/Y181C double mutant assessed as inhibition of viral replication by phenoscreen assay in presence of 40% normal human serum; format: functional, organism-based; conditions: Human immunodeficiency virus 1, isolate NL4-3
[17] = system: Human immunodeficiency virus 1; experiment: Antiviral activity against HIV1 isolate NL4-3 harboring reverse transcriptase K103N/G190A double mutant assessed as inhibition of viral replication by phenoscreen assay in presence of 40% normal human serum; format: functional, organism-based; conditions: Human immunodeficiency virus 1, isolate NL4-3
[18] = system: Human immunodeficiency virus 1; experiment: Ratio IC50 for HIV1 isolate NL4-3 harboring reverse transcriptase K101E/Y181C/G190A mutant to IC50 for HIV1 isolate NL4-3 harboring wild type reverse transcriptase by phenoscreen assay in presence of 40% normal human serum; format: functional
[19] = system: Human immunodeficiency virus 1; experiment: Antiviral activity against HIV1 isolate NL4-3 harboring reverse transcriptase K103N/P225H double mutant assessed as inhibition of viral replication by phenoscreen assay in presence of 40% normal human serum; format: functional, organism-based; conditions: Human immunodeficiency virus 1, isolate NL4-3
[20] = system: Human immunodeficiency virus 1; experiment: Ratio IC50 for HIV1 isolate NL4-3 harboring reverse transcriptase Y181C/G190A double mutant to IC50 for HIV1 isolate NL4-3 harboring wild type reverse transcriptase by phenoscreen assay in presence of 40% normal human serum; format: functional
[21] = system: Human immunodeficiency virus 1; experiment: Ratio IC50 for HIV1 isolate NL4-3 harboring reverse transcriptase G190S mutant to IC50 for HIV1 isolate NL4-3 harboring wild type reverse transcriptase by phenoscreen assay in presence of 40% normal human serum; format: functional
[22] = system: Human immunodeficiency virus 1; experiment: Antiviral activity against HIV1 R8 harboring wild type reverse transcriptase infected in human MT4 cells assessed as inhibition of viral spread in presence of 10% fetal bovine serum; format: functional; conditions: Human immunodeficiency virus 1, R8, MT4; read-out: CIC95
[23] = system: Human immunodeficiency virus 1; experiment: Antiviral activity against HIV1 R8 harboring reverse transcriptase infected in human MT4 cells assessed as inhibition of viral spread in presence of 50% normal human serum; format: functional; conditions: Human immunodeficiency virus 1, R8, MT4; read-out: CIC95
[24] = system: Human immunodeficiency virus 1; experiment: Antiviral activity against HIV1 isolate NL4-3 harboring reverse transcriptase Y181C mutant assessed as inhibition of viral replication by phenoscreen assay in presence of 40% normal human serum; format: functional, organism-based; conditions: Human immunodeficiency virus 1, isolate NL4-3
[25] = system: Human immunodeficiency virus 1; experiment: Ratio IC50 for HIV1 isolate NL4-3 harboring reverse transcriptase K103N mutant to IC50 for HIV1 isolate NL4-3 harboring wild type reverse transcriptase by phenoscreen assay in presence of 40% normal human serum; format: functional
[26] = system: Human immunodeficiency virus 1; experiment: Ratio IC50 for HIV1 isolate NL4-3 harboring reverse transcriptase K103N/V179E double mutant to IC50 for HIV1 isolate NL4-3 harboring wild type reverse transcriptase by phenoscreen assay in presence of 40% normal human serum; format: functional
[27] = system: Human immunodeficiency virus 1; experiment: Antiviral activity against HIV1 isolate NL4-3 harboring reverse transcriptase K103N mutant assessed as inhibition of viral replication by phenoscreen assay in presence of 40% normal human serum; format: functional, organism-based; conditions: Human immunodeficiency virus 1, isolate NL4-3
[28] = system: Human immunodeficiency virus 1; experiment: Ratio IC50 for HIV1 isolate NL4-3 harboring reverse transcriptase K103N/Y181C/G190A mutant to IC50 for HIV1 isolate NL4-3 harboring wild type reverse transcriptase by phenoscreen assay in presence of 40% normal human serum; format: functional
[29] = system: Human immunodeficiency virus 1; experiment: Antiviral activity against HIV1 isolate NL4-3 harboring reverse transcriptase G190A mutant assessed as inhibition of viral replication by phenoscreen assay in presence of 40% normal human serum; format: functional, organism-based; conditions: Human immunodeficiency virus 1, isolate NL4-3
[30] = system: Human immunodeficiency virus 1; experiment: Antiviral activity against HIV1 isolate NL4-3 harboring reverse transcriptase Y188L mutant assessed as inhibition of viral replication by phenoscreen assay in presence of 40% normal human serum; format: functional, organism-based; conditions: Human immunodeficiency virus 1, isolate NL4-3
[31] = biological target: Human immunodeficiency virus type 1 reverse transcriptase (Human immunodeficiency virus 1, UniProt Q72547, Y181C); experiment: Inhibition of HIV1 reverse transcriptase Y181C mutant by SPA assay
[32] = system: Human immunodeficiency virus 1; experiment: Antiviral activity against HIV1 isolate NL4-3 harboring reverse transcriptase V106A/G190A/F227L mutant assessed as inhibition of viral replication by phenoscreen assay in presence of 40% normal human serum; format: functional, organism-based; conditions: Human immunodeficiency virus 1, isolate NL4-3
[33] = system: Human immunodeficiency virus 1; experiment: Ratio IC50 for HIV1 isolate NL4-3 harboring reverse transcriptase K101E/G190A double mutant to IC50 for HIV1 isolate NL4-3 harboring wild type reverse transcriptase by phenoscreen assay in presence of 40% normal human serum; format: functional
[34] = system: Human immunodeficiency virus 1; experiment: Antiviral activity against HIV1 R8 harboring reverse transcriptase K103N mutant infected in human MT4 cells assessed as inhibition of viral spread in presence of 10% fetal bovine serum; format: functional; conditions: Human immunodeficiency virus 1, R8, MT4; read-out: CIC95
[35] = system: Human immunodeficiency virus 1; experiment: Antiviral activity against HIV1 isolate NL4-3 harboring reverse transcriptase G190S mutant assessed as inhibition of viral replication by phenoscreen assay in presence of 40% normal human serum; format: functional, organism-based; conditions: Human immunodeficiency virus 1, isolate NL4-3
[36] = system: Human immunodeficiency virus 1; experiment: Antiviral activity against HIV1 isolate NL4-3 harboring reverse transcriptase Y181C/G190A double mutant assessed as inhibition of viral replication by phenoscreen assay in presence of 40% normal human serum; format: functional, organism-based; conditions: Human immunodeficiency virus 1, isolate NL4-3
[37] = biological target: Human immunodeficiency virus type 1 reverse transcriptase (Human immunodeficiency virus 1, UniProt Q72547, K103N); experiment: Inhibition of HIV1 reverse transcriptase K103N mutant by SPA assay
[38] = system: Human immunodeficiency virus 1; experiment: Ratio IC50 for HIV1 isolate NL4-3 harboring reverse transcriptase V106A/G190A/F227L mutant to IC50 for HIV1 isolate NL4-3 harboring wild type reverse transcriptase by phenoscreen assay in presence of 40% normal human serum; format: functional

N#Cc1cc(Cl)cc(Oc2cc(OCc3cc(-c4ccncc4)[nH]n3)ccc2Cl)c1
Ratio IC50 [1]: 5 | Ratio IC50 [2]: 7.2 | IC50 [3]: 4.5 nM | Ratio IC50 [4]: 26.6 | Ratio IC50 [5]: >222 | IC95 [6]: 278 nM | IC50 [7]: 21.9 nM | IC50 [8]: 90.2 nM | IC50 [9]: > 1000 nM | IC50 [10]: 332 nM | IC50 [11]: 118 nM | Ki [12]: 0.7 nM | Ratio IC50 [13]: >222 | Ratio IC50 [14]: 4.9 | Ratio IC50 [15]: 8 | IC50 [16]: > 1000 nM | IC50 [17]: 120 nM | Ratio IC50 [18]: 73.7 | IC50 [19]: 32.4 nM | Ratio IC50 [20]: 29.1 | Ratio IC50 [21]: 35.7 | IC95 [22]: 25 nM | IC95 [23]: 102 nM | IC50 [24]: 36.2 nM | Ratio IC50 [25]: 4.4 | Ratio IC50 [26]: 20 | IC50 [27]: 19.7 nM | Ratio IC50 [28]: >222 | IC50 [29]: 22.3 nM | IC50 [30]: > 1000 nM | Ki [31]: 4.6 nM | IC50 [32]: > 1000 nM | Ratio IC50 [33]: 26.2 | IC95 [34]: 102 nM | IC50 [35]: 161 nM | IC50 [36]: 131 nM | Ki [37]: 4.2 nM | Ratio IC50 [38]: >222
